pIC50: −log10 of the molar value.
Test system: 885512-296-R-J2-PDC complex spheroid viability
Test: Anticancer human tumor 885512-296-R-J2-PDC patient-derived breast carcinoma cell line growth inhibition
Details: for pIC50: curve of first compound; for viability, T/C: stronger effect = lower value
Summary of the method: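 Complex spheroids of tumor cells with HUVEC and human MSCs, exposed to iadademstat combined with other agents. Each agent tested in half-log steps from near clinical Cmax (else 10 microM top), DMSO ≤0.25%.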

[1] = second compound 0.1 µM, first compound 0.0316 µM
[2] = second compound 0.1 µM, first compound 0.1 µM
[3] = second compound 0.1 µM, first compound 0.316 µM
[4] = second compound 0.1 µM, first compound 1 µM
[5] = second compound 0.1 µM, first compound 3.16 µM
[6] = second compound 0.1 µM, first compound 10 µM
[7] = second compound 0.316 µM, first compound 0.0316 µM
[8] = second compound 0.316 µM, first compound 0.1 µM
[9] = second compound 0.316 µM, first compound 0.316 µM
[10] = second compound 0.316 µM, first compound 1 µM
[11] = second compound 0.316 µM, first compound 3.16 µM
[12] = second compound 0.316 µM, first compound 10 µM
[13] = second compound 1 µM, first compound 0.0316 µM
[14] = second compound 1 µM, first compound 0.1 µM
[15] = second compound 1 µM, first compound 0.316 µM
[16] = second compound 1 µM, first compound 1 µM
[17] = second compound 1 µM, first compound 3.16 µM
[18] = second compound 1 µM, first compound 10 µM
[19] = second compound 3.16 µM, first compound 0.0316 µM
[20] = second compound 3.16 µM, first compound 0.1 µM
[21] = second compound 3.16 µM, first compound 0.316 µM
[22] = second compound 3.16 µM, first compound 1 µM
[23] = second compound 3.16 µM, first compound 3.16 µM
[24] = second compound 3.16 µM, first compound 10 µM
[25] = second compound 10 µM, first compound 0.0316 µM
[26] = second compound 10 µM, first compound 0.1 µM
[27] = second compound 10 µM, first compound 0.316 µM
[28] = second compound 10 µM, first compound 1 µM
[29] = second compound 10 µM, first compound 3.16 µM
[30] = second compound 10 µM, first compound 10 µM
[31] = second compound 0.1 µM, first compound 0.00949 µM
[32] = second compound 0.1 µM, first compound 0.03 µM
[33] = second compound 0.1 µM, first compound 0.0949 µM
[34] = second compound 0.1 µM, first compound 0.3 µM
[35] = second compound 0.316 µM, first compound 0.00949 µM
[36] = second compound 0.316 µM, first compound 0.03 µM
[37] = second compound 0.316 µM, first compound 0.0949 µM
[38] = second compound 0.316 µM, first compound 0.3 µM
[39] = second compound 1 µM, first compound 0.00949 µM
[40] = second compound 1 µM, first compound 0.03 µM
[41] = second compound 1 µM, first compound 0.0949 µM
[42] = second compound 1 µM, first compound 0.3 µM
[43] = second compound 3.16 µM, first compound 0.00949 µM
[44] = second compound 3.16 µM, first compound 0.03 µM
[45] = second compound 3.16 µM, first compound 0.0949 µM
[46] = second compound 3.16 µM, first compound 0.3 µM
[47] = second compound 10 µM, first compound 0.00949 µM
[48] = second compound 10 µM, first compound 0.03 µM
[49] = second compound 10 µM, first compound 0.0949 µM
[50] = second compound 10 µM, first compound 0.3 µM
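Further: spheroids exposed to agents for 7 days before viability read.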

CC1(C)CCC(CN2CCN(c3ccc(C(=O)NS(=O)(=O)c4ccc(NCC5CCOCC5)c([N+](=O)[O-])c4)c(Oc4cnc5[nH]ccc5c4)c3)CC2)=C(c2ccc(Cl)cc2)C1 + NC1CC1c1ccc(-c2cccc(O)c2)cc1
pIC50 (second compound 0.1 µM): 5.75
pIC50 (second compound 0.316 µM): 5.74
pIC50 (second compound 1 µM): 5.73
pIC50 (second compound 3.16 µM): 5.82
pIC50 (second compound 10 µM): 6.00
viability, T/C [1]: 118%
viability, T/C [2]: 111%
viability, T/C [3]: 105%
viability, T/C [4]: 76.4%
viability, T/C [5]: 23.9%
viability, T/C [6]: 0.12%
viability, T/C [7]: 122%
viability, T/C [8]: 112%
viability, T/C [9]: 105%
viability, T/C [10]: 82.3%
viability, T/C [11]: 20.8%
viability, T/C [12]: 0.11%
viability, T/C [13]: 115%
viability, T/C [14]: 116%
viability, T/C [15]: 105%
viability, T/C [16]: 79.9%
viability, T/C [17]: 24.4%
viability, T/C [18]: 0.22%
viability, T/C [19]: 103%
viability, T/C [20]: 103%
viability, T/C [21]: 101%
viability, T/C [22]: 68.4%
viability, T/C [23]: 17.6%
viability, T/C [24]: 0.11%
viability, T/C [25]: 83.1%
viability, T/C [26]: 78.8%
viability, T/C [27]: 70.5%
viability, T/C [28]: 52.1%
viability, T/C [29]: 12.4%
viability, T/C [30]: 0.15%

CC1COCCN1c1cc(C2(S(C)(=N)=O)CC2)nc(-c2ccnc3[nH]ccc23)n1 (stereo not given) + NC1CC1c1ccc(-c2cccc(O)c2)cc1
pIC50 (second compound 0.1 µM): 6.30
pIC50 (second compound 0.316 µM): 6.33
pIC50 (second compound 1 µM): 6.47
pIC50 (second compound 3.16 µM): 6.39
pIC50 (second compound 10 µM): 6.67
viability, T/C [1]: 110%
viability, T/C [2]: 116%
viability, T/C [3]: 76.1%
viability, T/C [4]: 11.1%
viability, T/C [5]: 3.64%
viability, T/C [6]: 2.7%
viability, T/C [7]: 139%
viability, T/C [8]: 112%
viability, T/C [9]: 72.3%
viability, T/C [10]: 10.7%
viability, T/C [11]: 3.33%
viability, T/C [12]: 2.63%
viability, T/C [13]: 118%
viability, T/C [14]: 113%
viability, T/C [15]: 52.3%
viability, T/C [16]: 8.24%
viability, T/C [17]: 3.25%
viability, T/C [18]: 2.72%
viability, T/C [19]: 114%
viability, T/C [20]: 101%
viability, T/C [21]: 63.1%
viability, T/C [22]: 9.16%
viability, T/C [23]: 3.38%
viability, T/C [24]: 2.43%
viability, T/C [25]: 79.9%
viability, T/C [26]: 76.5%
viability, T/C [27]: 37%
viability, T/C [28]: 8.1%
viability, T/C [29]: 3.13%
viability, T/C [30]: 2.67%

CCN(c1cc(-c2ccc(CN3CCOCC3)cc2)cc(C(=O)NCc2c(C)cc(C)[nH]c2=O)c1C)C1CCOCC1 + NC1CC1c1ccc(-c2cccc(O)c2)cc1
pIC50 (second compound 0.1 µM): 6.80
pIC50 (second compound 0.316 µM): 6.78
pIC50 (second compound 1 µM): 6.82
pIC50 (second compound 3.16 µM): 6.82
pIC50 (second compound 10 µM): 7.03
viability, T/C [31]: 106%
viability, T/C [32]: 108%
viability, T/C [33]: 67.2%
viability, T/C [34]: 26.9%
viability, T/C (second compound 0.1 µM, first compound 0.949 µM): 19.2%
viability, T/C (second compound 0.1 µM, first compound 3 µM): 7.41%
viability, T/C [35]: 120%
viability, T/C [36]: 103%
viability, T/C [37]: 65.8%
viability, T/C [38]: 31.9%
viability, T/C (second compound 0.316 µM, first compound 0.949 µM): 16.2%
viability, T/C (second compound 0.316 µM, first compound 3 µM): 7.17%
viability, T/C [39]: 120%
viability, T/C [40]: 105%
viability, T/C [41]: 60.6%
viability, T/C [42]: 31.1%
viability, T/C (second compound 1 µM, first compound 0.949 µM): 16.7%
viability, T/C (second compound 1 µM, first compound 3 µM): 6.44%
viability, T/C [43]: 100%
viability, T/C [44]: 86.6%
viability, T/C [45]: 63.2%
viability, T/C [46]: 31.6%
viability, T/C (second compound 3.16 µM, first compound 0.949 µM): 16.8%
viability, T/C (second compound 3.16 µM, first compound 3 µM): 7.23%
viability, T/C [47]: 84%
viability, T/C [48]: 78.7%
viability, T/C [49]: 48.2%
viability, T/C [50]: 21.1%
viability, T/C (second compound 10 µM, first compound 0.949 µM): 12.8%
viability, T/C (second compound 10 µM, first compound 3 µM): 6.35%

Nc1ncn(C2CC(O)C(CO)S2)c(=O)n1 (stereo not given) + NC1CC1c1ccc(-c2cccc(O)c2)cc1
pIC50 (second compound 0.1 µM): 8.34
pIC50 (second compound 0.316 µM): 8.37
pIC50 (second compound 1 µM): 8.36
pIC50 (second compound 3.16 µM): 8.55
pIC50 (second compound 10 µM): 9.00
viability, T/C (second compound 0.1 µM, first compound 0.000949 µM): 91.2%
viability, T/C (second compound 0.1 µM, first compound 0.003 µM): 62%
viability, T/C [31]: 29.4%
viability, T/C [32]: 15.9%
viability, T/C [33]: 8.39%
viability, T/C [34]: 4.32%
viability, T/C (second compound 0.316 µM, first compound 0.000949 µM): 84.1%
viability, T/C (second compound 0.316 µM, first compound 0.003 µM): 60.6%
viability, T/C [35]: 26.1%
viability, T/C [36]: 14.8%
viability, T/C [37]: 8.48%
viability, T/C [38]: 4.51%
viability, T/C (second compound 1 µM, first compound 0.000949 µM): 75%
viability, T/C (second compound 1 µM, first compound 0.003 µM): 60.4%
viability, T/C [39]: 29.5%
viability, T/C [40]: 13.8%
viability, T/C [41]: 7.96%
viability, T/C [42]: 4.21%
viability, T/C (second compound 3.16 µM, first compound 0.000949 µM): 61.6%
viability, T/C (second compound 3.16 µM, first compound 0.003 µM): 50.2%
viability, T/C [43]: 25.9%
viability, T/C [44]: 12.9%
viability, T/C [45]: 6.26%
viability, T/C [46]: 4.09%
viability, T/C (second compound 10 µM, first compound 0.000949 µM): 50.1%
viability, T/C (second compound 10 µM, first compound 0.003 µM): 39.8%
viability, T/C [47]: 17.2%
viability, T/C [48]: 9.45%
viability, T/C [49]: 5.85%
viability, T/C [50]: 3.58%

Reference: PubChem BioAssay AID1918946 (Molecular Pharmacology Branch, DTP, NCI, 2023)
